{"source": "patent US8420692B1", "about": "“Heterocyclic and carbonate derivatives of NDGA and their use as new anti-HIV and anti-cancer agents” (The Johns Hopkins University, priority 2006, dated 2013)", "key": {"[1]": {"assay": "Stability in aqueous solution (time dependent UV spectra)", "type": "physicochemical", "details": "HCl salts, 28 days at 20° C., FIG. 1", "description": "FIG. 1: Stability of Two NDGA Derivatives G4N and P4N(HCl salts) in Aqueous Solution. Time Dependent Changes in UV spectra showing (a) G4N is unstable and (b) meso-2,3-dimethyl-1,4-bis(3,4-[2-piperidino)ethoxyphenyl])butane (P4N) (compound 5b in Scheme 1) (day 1, 2, 8, 13, 28) is stable in Milli-Q water after 28 days at 20° C.\nThe new NDGA derivatives (Scheme 1) were found stable in aqueous solution; >99% of these compounds remained intact after 28 days (see FIG. 1(b)). In a sharp contrast, >96% G4N (4) decomposed in aqueous solution within 24 h (see FIG. 1(a))."}, "[2]": {"tested_on": "human breast cancer line MCF-7", "assay": "MTT-based cytotoxicity / proliferation assay, MCF-7", "type": "cell-based", "description": "(§1) The cytotoxicity of P4N against Vero cells and human cancer cells HEP3B, HT29 and MCF7 was analyzed using an MTT [3-(4,5-dimethylthiazol-2-yl)-2,5-diphenyltetrazolium bromide]-based assay (Sigma). The absorbance of OD570 was a measurement of formazon crystals solubilized in DMSO from metabolically active cells. Procedures were discussed in Huang R C C, et al. in Antiviral Res 58, 57-64 2003.^10\n(§2) We have previously shown that M4N arrests tumor cells growth at G2-M phase of the cell cycle by reducing the level of Cdc2 protein and kinase activity,^17,18 and induces apoptosis by suppressing survivin gene expression and protein stability and activating the mitochondrial apoptosis pathway.^17 M4N is able to reverse the multidrug resistance by inhibiting the Sp1-regulated MDR1 gene expression and preventing the synthesis of p-glycoprotein (Pgp).^24 To investigate the effect of water soluble NDGA derivative P4N on growth of the transformed cells, four cell lines, Vero cell (African green monkey kidney cells), human liver cancer line Hep3B, colon cancer cell line HT29, and human breast cancer line MCF-7 were selected for testing. The Vero cell line is aneuploid."}, "[3]": {"tested_on": "Vero cell (African green monkey kidney cells)", "assay": "MTT-based cytotoxicity / proliferation assay, Vero", "type": "cell-based", "details": "48 hrs, 37° C.", "description": "as §1, §2"}, "[4]": {"tested_on": "Sp1 cognate binding site DNA (dsOLIGOsp)", "assay": "1D NMR titration of the Sp1 cognate binding site", "details": "FIG. 3", "from_the_text": "FIG. 3: 1D 1H NMR spectra of free DNA, free P4N and 1:1 molar ratio DNA:P4N. The resonances with the largest chemical shift perturbation are indicated\nThe titration of the Sp1 cognate binding site with P4N was further studied by 1D NMR (FIG. 3). […] Changes in the chemical shifts and the line-widths of both the DNA and the drug indicate structural perturbations of the DNA upon titration with P4N. […] This is reflected in the split of the well resolved resonances of the carbon-nitrogen ring CH2 protons (which lie in an area of the spectrum that is free of DNA peaks). As shown on both FIG. 3 and FIG. 4 the largest perturbations of the P4N chemical shifts induced upon binding are those of the CH3 protons, aromatic protons and the carbon-nitrogen ring CH2 protons. […] Binding of Sp1 to dsOLIGOsp and binding of P4N to dsOLIGOsp are both reversible as shown in a competitive band-shift analysis (FIG. 6)."}, "[5]": {"tested_on": "COS cells", "assay": "Growth inhibition of untransfected COS cells", "type": "cell-based", "details": "≦1 μM, FIG. 9", "description": "FIG. 9: Inhibition of HIV Tat-Regulated transactivation by Compound 5b P4N. The COS cells were co-transfected with a Tat-producing plasmid and a plasmid containing the HIV LTR linked to the SeAP reporter gene. Transfected cells were treated with various concentrations of 5b P4N. After 48 h, aliquots of media were removed and analysis of SeAP activity was performed. The percent inhibition of SeAP activity by 5b P4N ? was calculated in comparison with the percent of growth inhibition of untransfected COS cells by P4N ?"}}, "note": "pIC50: −log10 of the molar value. Counter-ions that a name gives are not always drawn."}
{"smiles": "C[C@H](Cc1ccc(OCCN2CCCCC2)c(OCCN2CCCCC2)c1)[C@@H](C)Cc1ccc(OCCN2CCCCC2)c(OCCN2CCCCC2)c1", "note": "[Compound 5b, meso-2,3-Dimethyl-1,4-bis(3,4-[2-(piperidino)ethoxyphenyl])butane Tetrakishydrochloride Salt]", "values": [{"measurement": "Stability in Milli-Q water (UV spectra)", "setting": "[1]", "value": "stable"}, {"measurement": "pIC50", "setting": "[2]; 48 hrs, 37° C.", "value": 5.85}, {"measurement": "Concentration that effectively eliminates growth of tumor cells", "setting": "[2]; MCF-7, FIG. 11", "value": "< 5", "unit": "µM"}, {"measurement": "Inhibition of rapidly dividing Vero cells", "setting": "[3]; FIG. 11", "value": "extremely effective"}, {"measurement": "Inhibition of stationary phase vero cells", "setting": "[3]; FIG. 11A", "value": "much less so"}, {"measurement": "Binding to the DNA (1D NMR titration)", "setting": "[4]", "value": "micro-molar range"}, {"measurement": "Effect on the growth of the cos cells", "setting": "[5]", "value": "no effect"}]}
